The supplement of paper PMC10307832

Legend:
Experiment in all cases: relative viability (nuclei count vs DMSO), 5 days (fraction); higher = more cells survive
[1] = compound: C1=CC=C(C(=C1)C2=CC=C(C=C2)C3=CSC4=C3C(=C(C(=O)N4)C#N)O)O + O=C(c1cc(Cc2n[nH]c(=O)c3ccccc23)ccc1F)N1CCN(C(=O)C2CC2)CC1 [Olaparib] (partner 8 µM)
Summary of the method: (§1)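 Lung cancer cell lines in 1536-well plates got either a single drug or a fixed anchor-drug dose together with five library-drug doses (not always all listed) in √10 steps, by pin tool, on the day after seeding. Nuclei were counted after 5 days, and relative viability is the treated-to-vehicle ratio of nuclei counts. Values are medians of duplicate plates.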

TGX 221 + Phenformin = compound: CC1=CN2C(=O)C=C(N=C2C(=C1)C(C)NC3=CC=CC=C3)N4CCOCC4 [TGX 221] + N=C(N)NC(=N)NCCc1ccccc1 [Phenformin] (partner 250 µM)
Summary of the method: as §1

TGX 221 + Pemetrexed = compound: CC1=CN2C(=O)C=C(N=C2C(=C1)C(C)NC3=CC=CC=C3)N4CCOCC4 [TGX 221] + Nc1nc2[nH]cc(CCc3ccc(C(=O)N[C@@H](CCC(=O)O)C(=O)O)cc3)c2c(=O)[nH]1 [Pemetrexed] (partner 0.2 µM)
Summary of the method: as §1

TGX 221 + Olaparib = compound: CC1=CN2C(=O)C=C(N=C2C(=C1)C(C)NC3=CC=CC=C3)N4CCOCC4 [TGX 221] + O=C(c1cc(Cc2n[nH]c(=O)c3ccccc23)ccc1F)N1CCN(C(=O)C2CC2)CC1 [Olaparib] (partner 8 µM)
Summary of the method: as §1

Cell Line | relative viability ([1]; first compound 0.08 µM) | relative viability ([1]; first compound 0.253 µM) | relative viability ([1]; first compound 0.8 µM) | relative viability ([1]; first compound 2.53 µM) | relative viability ([1]; first compound 8 µM) | relative viability (TGX 221 + Phenformin; first compound 0.08 µM) | relative viability (TGX 221 + Phenformin; first compound 0.253 µM) | relative viability (TGX 221 + Phenformin; first compound 0.8 µM) | relative viability (TGX 221 + Phenformin; first compound 2.53 µM) | relative viability (TGX 221 + Phenformin; first compound 8 µM) | relative viability (TGX 221 + Pemetrexed; first compound 0.08 µM) | relative viability (TGX 221 + Pemetrexed; first compound 0.253 µM) | relative viability (TGX 221 + Pemetrexed; first compound 0.8 µM) | relative viability (TGX 221 + Pemetrexed; first compound 2.53 µM) | relative viability (TGX 221 + Pemetrexed; first compound 8 µM) | relative viability (TGX 221 + Olaparib; first compound 0.08 µM) | relative viability (TGX 221 + Olaparib; first compound 0.253 µM) | relative viability (TGX 221 + Olaparib; first compound 0.8 µM) | relative viability (TGX 221 + Olaparib; first compound 2.53 µM) | relative viability (TGX 221 + Olaparib; first compound 8 µM)
HCC-15 | 0.797 | 0.789 | 0.705 | 0.728 | 0.802 | 0.482 | 0.471 | 0.483 | 0.451 | 0.497 | 0.212 | 0.237 | 0.203 | 0.209 | 0.203 | 0.641 | 0.728 | 0.756 | 0.704 | 0.719
LU99A | 0.255 | 0.225 | 0.248 | 0.262 | 0.266 | 0.785 | 0.831 | 0.9 | 0.93 | 0.834 | 0.198 | 0.173 | 0.173 | 0.232 | 0.133 | 0.251 | 0.258 | 0.297 | 0.251 | 0.249
UMC-11 |  | 0.396 | 0.435 | 0.425 | 0.417 | 0.322 | 0.288 | 0.302 | 0.349 | 0.324 | 0.677 | 0.717 | 0.788 | 0.815 | 0.823 | 0.379 | 0.503 | 0.346 | 0.319 | 0.338
NCI-H2405 | 0.896 |  | 0.928 | 0.825 | 0.878 | 0.386 | 0.405 | 0.379 | 0.44 | 0.338 | 1.01 | 1.05 | 1.07 | 0.952 | 0.885 | 0.803 | 0.886 | 0.858 | 0.801 | 0.75
NCI-H1915 | 0.298 | 0.265 | 0.262 | 0.273 | 0.246 | 0.347 | 0.358 | 0.359 | 0.347 | 0.374 | 0.459 | 0.437 | 0.526 | 0.452 | 0.516 | 0.241 | 0.267 | 0.284 | 0.232 | 0.251
NCI-H2228 | 0.425 | 0.604 | 0.568 | 0.613 | 0.575 | 0.377 | 0.317 | 0.256 | 0.312 | 0.258 | 0.357 | 0.369 | 0.356 | 0.313 | 0.332 | 0.557 | 0.529 | 0.471 | 0.532 | 0.541
NCI-H322M | 0.69 | 0.742 | 0.863 | 0.519 | 0.748 | 0.761 | 0.735 | 0.715 | 0.758 | 0.682 | 0.58 | 0.619 | 0.604 | 0.579 | 0.565 | 0.699 | 0.701 | 0.876 | 0.716 | 0.681
LK-2 | 0.568 | 0.899 | 0.883 | 0.822 | 0.753 | 0.382 | 0.474 | 0.498 | 0.348 | 0.567 | 0.232 | 0.279 | 0.219 | 0.275 | 0.247 | 0.65 | 0.752 | 0.551 | 0.632 | 0.862
